Laboratory results published in patent publication US5760059A, “Indole derivatives” (Glaxo Wellcome SpA, priority 1993, dated 1998).
Where a name gives a salt, the structure may show the parent alone. Read-outs that look alike come from different tables or passages of the source.

Experiments:
[1] = molecular target: T1, strychnine insensitive glycine binding site (NMDA receptor complex) (Rattus norvegicus, UniProt P35439); assay: affinity for strychnine insensitive glycine binding site
T1 construct: from tissue

[2] = system: NMDA induced convulsions in mice; assay: inhibition of NMDA induced convulsions in mice; format: in vivo; conditions: Mus musculus, dose to protect 50 % of the animals from NMDA (intracerebroventricular) convulsions
Source text: In this test the ability of the compound to inhibit the generalized seizures induced by an intracerebroventricular injection of NMDA in mice was examined at a number of dose levels. […] This expressed as mg/kg is referred to as the ED50 value.

[3] = system: anaesthetised cats; assay: adverse effects in anaesthetised cats; format: in vivo, cat; conditions: doses up to 24 mg/kg
Source text: (§1) The compounds of the invention are essentially non toxic at therapeutically useful doses.

[4] = system: conscious dogs; assay: adverse effects in conscious dogs; format: in vivo, dog; conditions: doses up to 24 mg/kg
Source text: as §1

[5] = intravenous, read-out: ED50 i.v
[6] = strychnine insensitive glycine binding site, read-out: pKi (converted)

| Structure (SMILES) | Ki [1, 6] [µM] | further results |
| --- | --- | --- |
| O=C([O-])c1[nH]c2cc(Cl)cc(Cl)c2c1/C=C1\CCN(c2ccccc2)C1=O.[Na+] [Example 3, (E)4,6-dichloro-3-(2oxo-1-phenyl-pyrrolidin-3-ylidenemethyl) -1H-indole-2-carboxylic acid sodium salt] |  | Ki [1]: 0.0513 µM; ED50 [2, 5]: 0.08 mg/kg; ED50 ([2]; oral, read-out: ED50 po): 3.83 mg/kg |
| O=C(O)c1[nH]c2cc(Cl)cc(Cl)c2c1/C=C1\CCCN(c2ccccc2)C1=O [Example 6, (E)4,6-dichloro-3-(2-oxo-1-phenyI-piperidin-3-ylidenemethyl)-1H-indole-2-carboxylic acid sodium salt] | 0.049 | ED50 [2, 5]: 0.09 mg/kg; ED50 ([2]; oral, read-out: ED50 po): 7.5 mg/kg |
| O=C(O)c1[nH]c2cc(Cl)cc(Cl)c2c1/C=C1\CNN(c2ccccc2)C1=O [Example 8, (E) 4,6-dichloro-3-(5oxy-1-phenyl-pyrazolidin-4ylidenemethyl)-1H-indole-2-carboxylic acid sodium salt] | 0.01 | ED50 [2, 5]: 0.1 mg/kg; ED50 ([2]; oral, read-out: ED50 po): 1.7 mg/kg; adverse affects when administered [3]: no adverse affects; adverse affects when administered [4]: no adverse affects |
| Nc1ccc(N2NC/C(=C\c3c(C(=O)O)[nH]c4cc(Cl)cc(Cl)c34)C2=O)cc1 [Example 10, (E) 4,6dichloro-3-[(5-oxo-1-(4-aminophenyl))pyrazolidin-4-ylidenemethyl]-1H-indole-2-carboxylic acid hydrochloride salt] | 0.0148 | ED50 [2, 5]: 0.1 mg/kg; ED50 ([2]; oral, read-out: ED50 po): 1.7 mg/kg |
| O=C(O)c1[nH]c2cc(Cl)cc(Cl)c2c1/C=C1\NC(=O)N(c2ccccc2)C1=O [Example 12, (Z) 4,6-Dichloro-3-(2,5dioxo-1-phenyl-imidazolidin-4-ylidenemethyl)-l H-indole-2-carboxylic acid] | 0.0372 |  |
| O=C(O)c1[nH]c2cc(Cl)cc(Cl)c2c1/C=C1/NC(=O)N(c2ccccc2)C1=O [Example 14, (E) 4,6Dichloro-3-(2.5-dioxo-1-phenyl-imidazolidin-4-ylidenemethyl)-1H-indole-2-carboxylic acid] | 0.0741 |  |
| CC(=O)Nc1ccc(N2NCC(=Cc3c(C(=O)O)[nH]c4cc(Cl)cc(Cl)c34)C2=O)cc1 [Example 18, 4.6-Dichloro-3-[5-oxo1-(4-acetylamino-phenyl)-pyrazolidin-4-ylidenemethyl]-1H-indole-2-carboxylic acid] | 0.02 |  |
| NC(=O)Nc1ccc(N2NCC(=Cc3c(C(=O)O)[nH]c4cc(Cl)cc(Cl)c34)C2=O)cc1 [Example 20, 4,6-Dichloro-3-[5-oxo-1-(4-ureido-phenyl)-pyrazolidin-4-ylidenemethyl]-1H-indole-2-carboxylic acid] | 0.0204 |  |
| CS(=O)(=O)Nc1ccc(N2NCC(=Cc3c(C(=O)O)[nH]c4cc(Cl)cc(Cl)c34)C2=O)cc1 [Example 22, 4,6Dichloro-3-[1-(4-methylsulfamidophenyl)-5-oxo-pyrazolidin4-ylidenemrthyl]-1H-indole-2-carboxylic acid] | 0.0219 |  |
| CN1C/C(=C\c2c(C(=O)O)[nH]c3cc(Cl)cc(Cl)c23)C(=O)N1c1ccccc1 [Example 23, (E) 3[(2-methyl-5-oxo-1-phenyl)pyrazolidin-4-ylidenemethyl]-4,6-dichloro-1H-indole-2-carboxylic acid] | 0.0347 |  |
| O=C(O)c1[nH]c2cc(Cl)cc(Cl)c2c1C=C1CON(c2ccccc2)C1=O [Example 26, 4,6-Dichloro-3-(3-oxo-2-phenyl-isoxazolidin-4-ylidenemethyl)-1H-indole-2-carboxylic acid] | 0.0759 |  |
| Nc1cccc(N2NC/C(=C\c3c(C(=O)O)[nH]c4cc(Cl)cc(Cl)c34)C2=O)c1 [Example 27, (E) 4,6dichloro-3[(5-oxo-1-(3-aminophenyl))pyrazolidin-4-ylidenemethyl]-1H-indole-2-carboxylic acid hydrochloride salt] | 0.02 |  |
| O=C(O)c1[nH]c2cc(Cl)cc(Cl)c2c1/C=C1\CC(=O)N(c2ccccc2)C1=O [Example 28, (E) 4,6dichloro-3-(2.5-dioxo-1-phenyl-pyrrolidin-3-ylidenemethyl)-1H-indole-2-carboxylic acid] | 0.0417 |  |
| O=C(O)c1[nH]c2cc(Cl)cc(Cl)c2c1/C=C1\CNN(c2cccc3ccccc23)C1=O [Example 34, (E) 4,6-dichloro-3(5-oxo-1(1-naphthyl)-pyrazolidin-4-ylidenemethyl)-1H-indole-2-carboxylic acid] | 0.049 |  |
